Source: patent US8278455B2, “5- or 6-substituted benzimidazole derivatives as inhibitors of respiratory syncytial virus replication” (Janssen Pharmaceutica N.V., priority 2003, dated 2012)

Test system: Respiratory Syncytial Virus
Experiment: In vitro screening for activity against Respiratory Syncytial Virus (MTT tetrazolium colorimetric assay, HeLa cells)
Format: cell-based
Conditions: human respiratory syncytial virus, 168 h; protection against RSV cytopathology in HeLa cells, 7 days after infection; pEC50 = −log of EC50 in molar units
Description: The percent protection against cytopathology caused by viruses (antiviral activity or EC50) achieved by tested compounds and their cytotoxicity (CC50) are both calculated from dose-response curves. The selectivity of the antiviral effect is represented by the selectivity index (SI), calculated by dividing the CC50 (cytotoxic dose for 50% of the cells) by the EC50 (antiviral activity for 50% of the cells). The tables in the above experimental part list the category to which each of the prepared compounds belong. Compounds belonging to activity category “A” have an pEC50 (−log of EC50 when expressed in molar units) equal to or more than 7. Compounds belonging to activity category “B” have a pEC50 value between 6 and 7.
Automated tetrazolium-based […] assays were used for determination of EC50 and CC50 of test compounds. Flat-bottom, 96-well plastic microtiter trays were filled with 180 μl of Eagle's Basal Medium, supplemented with 5% FCS (0% for FLU) and 20 mM Hepes buffer. Subsequently, stock solutions (7.8× final test concentration) of compounds were added in 45 μl volumes to a series of triplicate wells so as to allow simultaneous evaluation of their effects on virus- and mock-infected cells. Five five-fold dilutions were made directly in the microtiter trays using a robot system. Untreated virus controls, and HeLa cell controls were included in each test. Approximately 100 TCID50 of Respiratory Syncytial Virus was added to two of the three rows in a volume of 50 μl. The same volume of medium was added to the third row to measure the cytotoxicity of the compounds at the same concentrations as those used to measure the antiviral activity. After two hours of incubation, a suspension (4×10^5 cells/ml) of HeLa cells was added to all wells in a volume of 50 μl. The cultures were incubated at 37° C. in a 5% CO2 atmosphere. Seven days after infection the cytotoxicity and the antiviral activity was examined spectrophotometrically. To each well of the microtiter tray, 25 μl of a solution of MTT (3-(4,5-dimethylthiazol-2-yl)-2,5-diphenyltetrazolium bromide) was added. The trays were further incubated at 37° C. for 2 hours, after which the medium was removed from each cup. Solubilization of the formazan crystals was achieved by adding 100 μl 2-propanol. Complete dissolution of the formazan crystals were obtained after the trays have been placed on a plate shaker for 10 min. Finally, the absorbances were read in an eight-channel computer-controlled photometer (Multiskan MCC, Flow Laboratories) at two wavelengths (540 and 690 nm). The absorbance measured at 690 nm was automatically subtracted from the absorbance at 540 nm, so as to eliminate the effects of non-specific absorption.

Row | Compound | EC50
1 | Cc1cccc(C(=O)Nc2ccc3nc(NC4CCN(C)CC4)n(Cc4nc(C)ccc4O)c3c2)c1 [Compound 65, N-[3-(3-hydroxy-6-methyl-pyridin-2-yl-methyl)-2-(1-methyl-piperidin-4-ylamino)-3H-benzoimidazol-5-yl]-3-methyl-benzamide] | 63.1 nM
2 | Cc1cccc(C(=O)Nc2ccc3c(c2)nc(NC2CCN(C)CC2)n3Cc2nc(C)ccc2O)c1 [Compound 78, N-[1-(3-hydroxy-6-methyl-pyridin-2-ylmethyl)-2-(1-methyl-piperidin-4-ylamino)-1H-benzoimidazol-5-yl]-3-methyl-benzamide] | 126 nM

Same assay, conditions: protection against RSV cytopathology in HeLa cells, 7 days after infection; pEC50 = −log of EC50 in molar units

Row | Compound | Activity
3 | Cc1ccc(O)c(Cn2c(NC3CCN(C)CC3)nc3ccc(NCc4ccccc4)cc32)n1 [Compound 56] | 7.3
4 | CCOC(=O)c1cccc(NCc2ccc3nc(NC4CCN(C)CC4)n(Cc4nc(C)ccc4O)c3c2)c1 [Compound 57] | 7.3
5 | Cc1ccc(O)c(Cn2c(NC3CCN(C)CC3)nc3ccc(CNc4cccc(C(N)=O)c4)cc32)n1 [Compound 58] | 7.3
6 | Cc1ccc(O)c(Cn2c(NC3CCN(C)CC3)nc3ccc(CN(CCN(C)C)Cc4ccccc4)cc32)n1.Cl [Compound 59] | 7.3
7 | Cc1ccc(O)c(Cn2c(NC3CCN(C)CC3)nc3ccc(CNc4ccc(C)c(F)c4)cc32)n1 [Compound 60] | 7.3
8 | COc1ccc(NCc2ccc3nc(NC4CCN(C)CC4)n(Cc4nc(C)ccc4O)c3c2)cc1OC [Compound 61] | 7.3
9 | CCN(Cc1ccc2nc(NC3CCN(C)CC3)n(Cc3nc(C)ccc3O)c2c1)c1ccccc1 [Compound 62] | 7.3
10 | Cc1ccc(O)c(Cn2c(NC3CCN(C)CC3)nc3ccc(CNc4ccc(Br)cc4C)cc32)n1 [Compound 63] | 7.3
11 | Cc1ccc(O)c(Cn2c(NC3CCN(C)CC3)nc3ccc(CNc4ccc(Nc5ccccc5)cc4)cc32)n1 [Compound 64] | 7.3
12 | Cc1ccc(O)c(Cn2c(NC3CCN(C)CC3)nc3ccc(CNc4cccc(Oc5ccccc5)c4)cc32)n1 [Compound 66] | 7.2
13 | COc1ccc(NCc2ccc3nc(NC4CCN(C)CC4)n(Cc4nc(C)ccc4O)c3c2)cc1F [Compound 67] | 7.2
14 | Cc1ccc(O)c(Cn2c(NC3CCN(C)CC3)nc3ccc(CNc4ccc(Br)c(C)c4)cc32)n1 [Compound 68] | 7.2
15 | Cc1ccc(O)c(Cn2c(NC3CCN(C)CC3)nc3ccc(CNc4ccc(Br)c(F)c4)cc32)n1 [Compound 69] | 7.2
16 | Cc1ccc(O)c(Cn2c(NC3CCN(C)CC3)nc3ccc(CNc4ccc(Cl)cc4Cl)cc32)n1 [Compound 70] | 7.2
17 | Cc1ccc(O)c(Cn2c(NC3CCN(C)CC3)nc3ccc(CNc4ccc(C(F)(F)F)cc4)cc32)n1 [Compound 71] | 7.2
18 | CCOC(=O)c1ccccc1NCc1ccc2nc(NC3CCN(C)CC3)n(Cc3nc(C)ccc3O)c2c1 [Compound 72] | 7.1
19 | Cc1ccc(NCc2ccc3nc(NC4CCN(C)CC4)n(Cc4nc(C)ccc4O)c3c2)c(Cl)c1 [Compound 73] | 7.1
20 | CCc1cc(Br)ccc1NCc1ccc2nc(NC3CCN(C)CC3)n(Cc3nc(C)ccc3O)c2c1 [Compound 74] | 7.1
21 | Cc1ccc(O)c(Cn2c(NC3CCN(C)CC3)nc3ccc(CNc4c(C)cccc4C)cc32)n1 [Compound 75] | 7

Row | Compound | Activity
22 | Cc1ccc(O)c(Cn2c(NC3CCN(C)CC3)nc3ccc(CNc4ccc(C(C)C)cc4)cc32)n1 [Compound 76] | 7
23 | Cc1ccc(O)c(Cn2c(NC3CCN(C)CC3)nc3ccc(CNc4cc(Cl)c(Cl)cc4Cl)cc32)n1 [Compound 77] | 7
24 | Cc1ccc(O)c(Cn2c(NC3CCN(C)CC3)nc3ccc(Cn4ccnc4)cc32)n1 [Compound 79] | 6.9
25 | Cc1ccc(O)c(Cn2c(NC3CCN(C)CC3)nc3ccc(CN(Cc4ccccc4)c4ccccc4)cc32)n1 [Compound 80] | 6.9
26 | Cc1ccc(O)c(Cn2c(NC3CCN(C)CC3)nc3ccc(CN4CCc5cc(Br)ccc54)cc32)n1 [Compound 81] | 6.9
27 | Cc1ccc(O)c(Cn2c(NC3CCN(C)CC3)nc3ccc(CNc4c(C)cccc4C(C)C)cc32)n1 [Compound 82] | 6.9
28 | Cc1ccc(O)c(Cn2c(NC3CCN(C)CC3)nc3ccc(CNc4ccc(Cl)cc4Br)cc32)n1 [Compound 83] | 6.9
29 | Cc1ccc(CCc2ccc3nc(NC4CCN(C)CC4)n(Cc4nc(C)ccc4O)c3c2)cc1 [Compound 84] | 6.8
30 | Cc1ccc(O)c(Cn2c(NC3CCN(C)CC3)nc3ccc(CN(CCO)Cc4ccccc4)cc32)n1 [Compound 85] | 6.8
31 | Cc1ccc(O)c(Cn2c(NC3CCN(C)CC3)nc3ccc(C(O)c4ccccc4)cc32)n1 (stereo not shown) [Compound 86] | 6.8
32 | Cc1ccc(O)c(Cn2c(NC3CCN(C)CC3)nc3ccc(CNc4c(C)cc(Br)cc4C)cc32)n1 [Compound 87] | 6.8
33 | Cc1cc(C)c(NCc2ccc3nc(NC4CCN(C)CC4)n(Cc4nc(C)ccc4O)c3c2)c(Cl)c1 [Compound 88] | 6.8
34 | Cc1ccc(O)c(Cn2c(NC3CCN(C)CC3)nc3ccc(CNc4ccc(Br)cc4Cl)cc32)n1 [Compound 89] | 6.8
35 | Cc1ccc(O)c(Cn2c(NC3CCN(C)CC3)nc3cc(NC(=O)c4ccccc4)ccc32)n1 [Compound 90] | 6.7
36 | Cc1ccc(O)c(Cn2c(NC3CCN(C)CC3)nc3ccc(CNc4cc(C)c(C)cc4S)cc32)n1 [Compound 91] | 6.7
37 | Cc1ccc(O)c(Cn2c(NC3CCN(C)CC3)nc3ccc(CO)cc32)n1 [Compound 92] | 6.6
38 | Cc1ccc(O)c(Cn2c(NC3CCN(C)CC3)nc3ccc(CNc4ccc(Br)c5ccccc45)cc32)n1 [Compound 94] | 6.6
39 | Cc1cc(C)c(NCc2ccc3nc(NC4CCN(C)CC4)n(Cc4nc(C)ccc4O)c3c2)c(C)c1 [Compound 96] | 6.6
40 | Cc1ccc(O)c(Cn2c(NC3CCN(C)CC3)nc3ccc(CN4CCOC(CCO)C4)cc32)n1 (stereo not shown) [Compound 97] | 6.6

Row | Compound | Activity
41 | Cc1ccc(O)c(Cn2c(NC3CCN(C)CC3)nc3ccc(CN4CCOCC4)cc32)n1 [Compound 98] | 6.5
42 | Cc1ccc(O)c(Cn2c(NC3CCN(C)CC3)nc3ccc(/C=C/c4ccccc4)cc32)n1 [Compound 99] | 6.4
43 | Cc1ccc(O)c(Cn2c(NC3CCN(C)CC3)nc3cc(/C=C/c4ccccc4)ccc32)n1 [Compound 100] | 6.4
44 | COCCN(CCOC)Cc1ccc2nc(NC3CCN(C)CC3)n(Cc3nc(C)ccc3O)c2c1 [Compound 102] | 6.4
45 | Cc1cccc(/C=C/c2ccc3nc(NC4CCN(C)CC4)n(Cc4nc(C)ccc4O)c3c2)c1 [Compound 103] | 6.3
46 | Cc1cccc(/C=C/c2ccc3c(c2)nc(NC2CCN(C)CC2)n3Cc2nc(C)ccc2O)c1 [Compound 104] | 6.2
47 | Cc1ccc(O)c(Cn2c(NC3CCN(C)CC3)nc3ccc(CN(C)CCc4ccccc4)cc32)n1 [Compound 105] | 6.2
48 | Cc1ccc(O)c(Cn2c(NC3CCN(C)CC3)nc3ccc(NC(=O)CCc4ccccc4)cc32)n1 [Compound 106] | 6.1
49 | Cc1ccc(O)c(Cn2c(NC3CCN(C)CC3)nc3ccc(NC(=O)Cc4ccccc4)cc32)n1 [Compound 107] | 6.1
50 | Cc1ccc(O)c(Cn2c(NC3CCN(C)CC3)nc3ccc(NC(=O)Cc4ccccn4)cc32)n1 [Compound 108] | 6
51 | CCCCN(CCO)Cc1ccc2nc(NC3CCN(C)CC3)n(Cc3nc(C)ccc3O)c2c1 [Compound 109] | 6
52 | Cc1ccc(O)c(Cn2c(NC3CCN(C)CC3)nc3ccc(CNCCc4ccccc4)cc32)n1 [Compound 110] | 5.8
53 | CCN(CCO)Cc1ccc2nc(NC3CCN(C)CC3)n(Cc3nc(C)ccc3O)c2c1 [Compound 111] | 5.6
54 | Cc1ccc(O)c(Cn2c(NC3CCN(C)CC3)nc3ccc(C(=O)Nc4ccccc4)cc32)n1 [Compound 112] | 5.5
55 | Cc1ccc(O)c(Cn2c(NC3CCN(C)CC3)nc3cc(NC(=O)Cc4ccccn4)ccc32)n1 [Compound 113] | 5.5
56 | Cc1ccc(O)c(Cn2c(NC3CCN(C)CC3)nc3ccc(NC(=O)c4cccnc4)cc32)n1 [Compound 114] | 5.2
57 | Cc1ccc(O)c(Cn2c(NC3CCN(C)CC3)nc3cc(/C=C/C#N)ccc32)n1 [Compound 115] | 5.1
58 | Cc1ccc(O)c(Cn2c(NC3CCN(C)CC3)nc3ccc(CNCCN4CCOCC4)cc32)n1 [Compound 117] | 5.1
